Data taken from ChEMBL document CHEMBL5620375, “Tetrahydrobenzo[h]quinoline derivatives as a novel chemotype for dual antileishmanial-antimalarial activity graced with antitubercular activity: Design, synthesis and biological evaluation” (Eur J Med Chem, 2023).
Converted amounts (≈) assume the structure as drawn.

How the values were obtained:
[1] = tested on: Mycobacterium tuberculosis; experiment: Antitubercular activity against XDR Mycobacterium tuberculosis RCMB 2674 assessed as inhibition of bacterial growth by microplate alamar blue assay; assay type: functional
Plasmodium berghei [2] = experiment: Antimalarial activity against Plasmodium berghei ANKA infected in mouse assessed as reduction in parasite growth at 48.4 microM/Kg,po measured after 96 hrs by giemsa staining analysis; assay type: functional; design: scale not given: the % may be the effect or the level left; conditions: at 48.4 µmol/kg
Leishmania major [3] = experiment: Antileishmanial activity against Leishmania major promastigotes assessed as inhibition of parasite growth incubated for 48 hrs by alamar blue reagent based ELISA; assay type: functional, organism-based
Plasmodium berghei [4] = experiment: Antimalarial activity against Plasmodium berghei ANKA infected in mouse assessed as parasitemia at 48.4 microM/Kg,po measured after 96 hrs by giemsa staining analysis relative to control; assay type: functional; conditions: at 48.4 µmol/kg
[5] = tested on: Mycobacterium tuberculosis; experiment: Antitubercular activity against Mycobacterium tuberculosis H37Ra assessed as inhibition of bacterial growth by microplate alamar blue assay; assay type: functional
Leishmania major [6] = experiment: Antileishmanial activity against Leishmania major amastigotes assessed as inhibition of parasite growth incubated for 72 hrs by resazurin reagent based ELISA; assay type: functional, organism-based
Plasmodium berghei [7] = experiment: Antimalarial activity against Plasmodium berghei ANKA infected in mouse assessed as mean survival time at 48.4 microM/Kg,po measured after 96 hrs; assay type: functional
Plasmodium falciparum = experiment: Antimalarial activity against chloroquine-resistant Plasmodium falciparum RKL9 assessed as inhibition of parasite growth incubated for 24 hrs by giemsa staining analysis; assay type: functional, organism-based; conditions: RKL9, 24 h
[8] = Acute toxicity in mouse assessed as signs of toxicity at 25 to 150 mg/kg,po administrated for 3 days; assay type: organism-based; conditions: in vivo, 72 h, dose 25-150 mg/kg, time 3 day
[9] = Acute toxicity in mouse assessed as change in body weight at 25 to 150 mg/kg,po administrated for 3 days; assay type: organism-based; conditions: in vivo, 72 h, dose 25-150 mg/kg, time 3 day
[10] = Cytotoxicity against African green monkey Vero cells incubated for 72 hrs by crystal violet staining based assay; assay type: toxicity, cell-based; conditions: chlorocebus sabaeus
Leishmania major [11] = experiment: Antileishmanial activity against Leishmania major promastigotes assessed as parasite survival incubated for 48 hrs in presence of 20 uM of folic acid by alamar blue reagent based ELISA relative to control; assay type: functional
Leishmania major [12] = experiment: Antileishmanial activity against Leishmania major promastigotes assessed as parasite survival incubated for 48 hrs in presence of 100 uM of folinic acid by alamar blue reagent based ELISA relative to control; assay type: functional
[13] = Selectivity index, ratio of CC50 for cytotoxicity against African green monkey Vero cells to MIC for antitubercular activity against Mycobacterium tuberculosis H37Ra; assay type: toxicity, cell-based; conditions: read-out: Selectivity Index
[14] = Selectivity index, ratio of CC50 for cytotoxicity against African green monkey Vero cells to IC50 for antileishmanial activity against Leishmania major; assay type: toxicity, cell-based; conditions: read-out: Ratio CC50/IC50
Leishmania major [15] = experiment: Antileishmanial activity against Leishmania major promastigotes assessed as parasite survival incubated for 48 hrs by alamar blue reagent based ELISA relative to control; assay type: functional
[16] = Selectivity index, ratio of CC50 for cytotoxicity against African green monkey Vero cells to IC50 for antimalarial activity against chloroquine-resistant Plasmodium falciparum RKL9; assay type: toxicity, cell-based; conditions: read-out: Ratio CC50/IC50
Leishmania major [17] = experiment: Antileishmanial activity against Leishmania major promastigotes assessed as parasite survival incubated for 48 hrs in presence of 100 uM of folic acid by alamar blue reagent based ELISA relative to control; assay type: functional
Leishmania major [18] = experiment: Antileishmanial activity against Leishmania major promastigotes assessed as parasite survival incubated for 48 hrs in presence of 20 uM of folinic acid by alamar blue reagent based ELISA relative to control; assay type: functional
Leishmania major [19] = experiment: Antileishmanial activity against Leishmania major promastigotes assessed as parasite survival at 100 uM incubated for 48 hrs by alamar blue reagent based ELISA relative to control
Leishmania major [20] = experiment: Antileishmanial activity against Leishmania major promastigotes assessed as parasite survival at 100 uM incubated for 48 hrs in presence of 100 uM of folic acid by alamar blue reagent based ELISA relative to control

Structure (SMILES) | Activity (Plasmodium berghei [2]) | IC50 (Leishmania major [3]) | Activity (Plasmodium berghei [4]) | MIC [5] | IC50 (Leishmania major [6]) | Survival (Plasmodium berghei [7]) | IC50 (Plasmodium falciparum) | other results
COc1ccc(-c2c3c([nH]c(=O)c2C#N)-c2ccccc2CC3)cc1O | 63.33% | 1.4 µM | 33% | 5.66 µM (≈ 1.95 µg/mL) | 3.7 µM | 7.33 days |  | MIC [1]: 182 µM (≈ 62.6 µg/mL)
N#Cc1c(O)nc2c(c1-c1cccc([N+](=O)[O-])c1)CCc1ccccc1-2 | 68.89% | 2.89 µM | 28% | 5.67 µM (≈ 1.95 µg/mL) | 3.97 µM | 7.66 days |  | MIC [1]: 91.1 µM (≈ 31.3 µg/mL)
N#Cc1c(-c2cccs2)c2c([nH]c1=O)-c1ccccc1CC2 | 97.78% | 2.64 µM | 2% | 12.8 µM (≈ 3.9 µg/mL) | 4.86 µM |  | 0.021 µM | Activity [8]: Non-Toxic; Activity [9]: Non-Toxic
COc1cc(-c2c3c([nH]c(=O)c2C#N)-c2ccccc2CC3)ccc1O | 97.78% | 0.577 µM | 2% | 90.7 µM (≈ 31.2 µg/mL) | 0.695 µM |  | 0.019 µM | CC50 at 72 h [10]: 363 µM; Survival (Leishmania major [11]): 76%; Survival (Leishmania major [12]): 89%; selectivity ratio [13]: 4; selectivity ratio [14]: 629; Activity [8]: Non-Toxic; Activity [9]: Non-Toxic; Survival (Leishmania major [15]): 22%; selectivity ratio [16]: 18300; Survival (Leishmania major [17]): 85%; Survival (Leishmania major [18]): 78%
COc1ccccc1-c1c2c([nH]c(=O)c1C#N)-c1ccccc1CC2 | 53.33% | 5.49 µM | 42% | 2.98 µM (≈ 0.979 µg/mL) | 6.29 µM | 6.5 days |  | CC50 at 72 h [10]: 381 µM; selectivity ratio [13]: 127; selectivity ratio [14]: 60.6; MIC [1]: 23.8 µM (≈ 7.82 µg/mL)
N#Cc1c(-c2ccc(Cl)cc2Cl)c2c([nH]c1=O)-c1ccccc1CC2 | 64.44% | 5.3 µM | 32% | 5.31 µM (≈ 1.95 µg/mL) | 6 µM | 4.5 days |  | MIC [1]: > 342 µM
CC(=O)N1CCC(C(=O)NCc2ccc3c(c2)-c2[nH]c(=O)c(C#N)c(-c4cc(Cl)ccc4Cl)c2CC3)CC1 | 96.67% | 0.409 µM | 3% | 28.4 µM (≈ 15.6 µg/mL) | 0.502 µM |  | 0.039 µM | CC50 at 72 h [10]: 455 µM; Survival (Leishmania major [11]): 78%; Survival (Leishmania major [12]): 94%; selectivity ratio [13]: 16; selectivity ratio [14]: 1110; Activity [8]: Non-Toxic; Activity [9]: Non-Toxic; Survival (Leishmania major [15]): 24%; selectivity ratio [16]: 11800; Survival (Leishmania major [17]): 88%; Survival (Leishmania major [18]): 82%
CC(=O)N1CCC(C(=O)NCc2ccc3c(c2)-c2[nH]c(=O)c(C#N)c(-c4cc(C(F)(F)F)ccc4Cl)c2CC3)CC1 | 37.78% | 1.24 µM | 56% | 53.6 µM (≈ 31.2 µg/mL) | 3.26 µM | 5.66 days |  | 
COc1ccc(OC)c(-c2c3c([nH]c(=O)c2C#N)-c2ccccc2CC3)c1 | 94.44% | 2.33 µM | 5% | 5.44 µM (≈ 1.95 µg/mL) | 2.98 µM |  | 0.089 µM | MIC [1]: 175 µM (≈ 62.6 µg/mL)
N#Cc1c(-c2ccccc2Br)c2c([nH]c1=O)-c1ccccc1CC2 | 60% | 2.11 µM | 36% | 10.3 µM (≈ 3.9 µg/mL) | 3.83 µM | 7.33 days |  | 
CCN(CC)CCCC(C)Nc1ccnc2cc(Cl)ccc12.O=P(O)(O)O.O=P(O)(O)O (configuration not stated) [CHLOROQUINE PHOSPHATE] | 100% |  | 0% |  |  | 13.12 days |  | 
COc1ccc(-c2c3c([nH]c(=O)c2C#N)-c2ccccc2CC3)cc1 | 71.11% | 3.9 µM | 26% | 11.9 µM (≈ 3.9 µg/mL) | 4.7 µM | 9.66 days |  | 
N#Cc1c(-c2ccccc2[N+](=O)[O-])c2c([nH]c1=O)-c1ccccc1CC2 | 81.11% | 4.22 µM | 17% |  | 5.63 µM | 8.83 days |  | 
CCc1nc(N)nc(N)c1-c1ccc(Cl)cc1 [PYRIMETHAMINE] | 100% |  | 0% |  |  |  | 0.013 µM | 
COc1cc(Cc2cnc(N)nc2N)cc(OC)c1OC [TRIMETHOPRIM] |  |  |  |  |  |  |  | survival at 100 µM (Leishmania major [19]): 71%; survival at 100 µM (Leishmania major [20]): 99%
COc1ccc(-c2c3c([nH]c(=O)c2C#N)-c2ccccc2CC3)cc1OC | 57.78% | 2.24 µM | 38% | 10.9 µM (≈ 3.9 µg/mL) | 4.68 µM | 8.66 days |  | 
COc1cccc(-c2c3c([nH]c(=O)c2C#N)-c2ccccc2CC3)c1 | 87.78% | 4.15 µM | 11% | 23.8 µM (≈ 7.81 µg/mL) | 4.88 µM | 10.66 days |  | 
Cc1cccc(-c2c3c([nH]c(=O)c2C#N)-c2ccccc2CC3)c1 | 80% | 3.46 µM | 18% | 100 µM (≈ 31.2 µg/mL) | 5.58 µM | 9.33 days |  | 
COc1cc(-c2c3c([nH]c(=O)c2C#N)-c2ccccc2CC3)cc(OC)c1OC | 91.11% | 2.52 µM | 8% | 20.1 µM (≈ 7.81 µg/mL) | 3.68 µM | 12.4 days | 0.096 µM | 
NNC(=O)c1ccncc1 [ISONIAZID] |  |  |  | 0.875 µM (≈ 0.12 µg/mL) |  |  |  | 
